{"source": "patent US20240277689A1", "about": "“METHOD OF TREATING AN AUTOIMMUNE HEMATOLOGICAL DISORDER” (Novartis AG, priority 2021, published 2024)", "key": {"[1]": {"test_system": "AP activity (Wieslab)", "assay": "First in human (FIH) studies: suppression of AP activity (Wieslab)", "assay_type": "in vivo", "method": "In the FIH studies, there was rapid suppression of the AP activity (Wieslab) with approximately 80% or greater inhibition achieved at two hours post-dose for participants receiving single dose of 200 mg iptacopan. The suppression of the AP (80% or greater inhibition) was sustained over 14 days of dosing at 200 mg b.i.d. The exposure-response model developed with data from the FIH study with iptacopan in healthy volunteers predicts that a dose of about 200 mg b.i.d. would be needed to achieve >90% inhibition of the AP (Wieslab assay) in most participants. Preclinical studies supported acceptable safety margins for human exposure following 200 mg b.i.d. dosing.\nGiven the observed PK/PD profile in a first in human study in healthy volunteers, a 200 mg b.i.d dose of iptacopan is selected for this study."}, "[2]": {"test_system": "complement alternative pathway", "conditions": "multiple in vitro and in vivo non-clinical mechanistic studies; cited from earlier work"}}}
{"molecule": "CCO[C@H]1CCN(Cc2c(OC)cc(C)c3[nH]ccc23)[C@H](c2ccc(C(=O)O)cc2)C1", "note": "[iptacopan, 4-((2S,4S)-(4-ethoxy-1-((5-methoxy-7-methyl-1H-indol-4-yl)methyl)piperidin-2-yl))benzoic acid]", "values": [{"measurement": "suppression of the AP (inhibition), sustained", "setting": "[1]; over 14 days of dosing at 200 mg b.i.d.", "result": "≥ 80", "unit": "%"}, {"measurement": "inhibition of AP activity (Wieslab)", "setting": "[1]; two hours post-dose, single dose of 200 mg, FIH participants", "result": "≥ 80", "unit": "%"}, {"measurement": "inhibition of the complement alternative pathway", "setting": "[2]", "result": "demonstrated inhibition of the complement alternative pathway"}]}
